Test results taken from patent US10604554B2, “Double-acylated GLP-1 derivatives” (Novo Nordisk A/S, priority 2012, dated 2020).

Biological target: T1, human GLP-1 receptor (Homo sapiens, UniProt P43220)
T1 construct: expressed in transfected cells; host or cells: BHK cells, clone FCW467-12A/KZ10-1 (parent line BHKTS13), further transfected with CRE luciferase
Assay: In vitro potency (AlphaScreen cAMP, membranes)
Type: biochemical
Conditions: cAMP formation in membranes from BHK467-12A cells expressing human GLP-1 receptor; read-out: In vitro potency (AlphaScreen) EC50
Summary of the method: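 Plasma membranes (6 μg/well) from BHK467-12A cells stably expressing human GLP-1 receptor stimulated with peptide in pH 7.4 Tris/HEPES buffer with 0.1% BSA, 0.5 mM IBMX, 1 mM ATP, 1 μM GTP. cAMP detected by AlphaScreen competition with biotin-cAMP after 3 h at RT, against cAMP standard.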

T1 sequence (P43220 24-463): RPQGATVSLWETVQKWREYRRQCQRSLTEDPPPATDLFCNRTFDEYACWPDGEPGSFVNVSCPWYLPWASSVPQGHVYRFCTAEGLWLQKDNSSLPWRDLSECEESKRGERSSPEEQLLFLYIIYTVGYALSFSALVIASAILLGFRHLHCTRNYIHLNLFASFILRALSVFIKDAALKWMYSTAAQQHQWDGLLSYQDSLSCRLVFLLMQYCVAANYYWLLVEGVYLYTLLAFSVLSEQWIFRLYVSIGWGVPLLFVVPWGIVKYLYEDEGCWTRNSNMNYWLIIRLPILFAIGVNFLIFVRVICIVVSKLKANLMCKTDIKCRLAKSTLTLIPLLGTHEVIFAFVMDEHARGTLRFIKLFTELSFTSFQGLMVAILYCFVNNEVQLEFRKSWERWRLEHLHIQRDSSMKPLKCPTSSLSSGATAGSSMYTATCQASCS

`CC[C@H](C)[C@H](NC(=O)[C@H](Cc1ccccc1)NC(=O)[C@H](CCC(=O)O)NC(=O)[C@H](CCCCNC(=O)[C@@H](N)CCCCNC(=O)[C@@H](N)CCCCNC(=O)CC[C@H](NC(=O)CCCCCCCCCCCCCCCCC(=O)O)C(=O)O)NC(=O)[C@H](C)NC(=O)[C@H](C)NC(=O)[C@H](CCC(N)=O)NC(=O)CNC(=O)[C@H](CCC(=O)O)NC(=O)[C@H](CC(C)C)NC(=O)[C@H](Cc1ccc(O)cc1)NC(=O)[C@H](CO)NC(=O)[C@H](CO)NC(=O)[C@@H](NC(=O)[C@H](CC(=O)O)NC(=O)[C@H](CO)NC(=O)[C@@H](NC(=O)[C@H](Cc1ccccc1)NC(=O)[C@@H](NC(=O)CNC(=O)[C@H](CCC(=O)O)NC(=O)C(C)(C)NC(=O)[C@@H](N)Cc1c[nH]cn1)[C@@H](C)O)[C@@H](C)O)C(C)C)C(=O)N[C@@H](C)C(=O)N[C@@H](Cc1c[nH]c2ccccc12)C(=O)N[C@@H](CC(C)C)C(=O)N[C@H](C(=O)N[C@@H](CCCNC(=N)N)C(=O)NCC(=O)N[C@@H](CCCNC(=N)N)C(=O)N[C@@H](CCCCNC(=O)[C@@H](N)CCCCNC(=O)[C@@H](N)CCCCNC(=O)CC[C@H](NC(=O)CCCCCCCCCCCCCCCCC(=O)O)C(=O)O)C(=O)O)C(C)C` [Example 27, N^ε26-[(2S)-2-amino-6-[[(2S)-2-amino-6-[[(4S)-4-carboxy-4-(17-carboxyheptadecanoylamino)butanoyl]amino]hexanoyl]amino]hexanoyl], N^ε37-[(2S)-2-amino-6-[[(2S)-2-amino-6-[[(4S)-4-carboxy-4-(17-carboxyheptadecanoylamino)butanoyl]amino]hexanoyl]amino]hexanoyl]-[Aib^8,Arg^34,Lys^37]-GLP-1-(7-37)-peptide] gave an EC50 of 3.69 nM.
